Results reported in patent US20260297081A1, “COMPOUNDS AND METHODS OF TREATING CANCERS” (Cullgen Inc., priority 2023, published 2026).
Read-outs that look alike come from different tables or passages of the source.

What was measured:
MCF7 cells [1] = experiment: Anti-proliferation (viability) of MCF7 cells (Table 7, FIG. 2B); assay type: cell-based; conditions: for IC50: Homo sapiens, MCF7, MCF7 cells, 3-6 days, 10-point serial dilution, read-out: GI IC50 in MCF-7
[2] = Pharmacokinetics in mice, single dose i.v. injection or oral gavage (FIG. 5); assay type: in vivo; conditions: mouse, plasma
Procedure: To investigate the pharmacokinetics of heterobifunctional compounds, exemplified by CPD-39, a single dose of CPD-39 via 1 mg/kg intravenous (i.v.) injection or 10 mg/kg was evaluated in mice. Plasma concentration reported at each time points post dosing represents the mean value derived from 3 experimental animals.

[3] = test system: T47D palbo-resistant cells; experiment: Cell viability in T47D palbociclib-resistant model (FIG. 4); assay type: cell-based; conditions: 10-point serial dilution, 6 days
Procedure: T47D cells were cultured long-term to resistance in the presence of 1 μM Palbociclib. Palbo resistance was determined by CellTiter-Lumi cell viability assay. T47D parental or palbo-resistant cells were treated with palbociclib, or heterobifunctional compounds CPD-10 or CPD-39 following a 10-point serial dilution for 6 days.
Calu-1, T47D, MCF7, HCC1428 and other cells were cultured at 37° C. with 5% CO2 in RPMI 1640 or DMEM medium supplemented with 10% fetal bovine serum. Cells were authenticated using the short tandem repeat (STR) assays. Mycoplasma test results were negative. For palbo-resistant cell model, T47D cells were cultured long-term to resistance in the presence of 1 μM Palbociclib. Cells were deemed resistant when growing in the presence of Palbo at the same rate as parental cells.
(§1) Cells were seeded at a density of 2,000-5,000 cells per well in 96-well assay plates and treated with test compounds following a 10-point serial dilution for 3-6 days. Cell viability was determined using the CellTiter-Lumi assay kit according to the manufacturer's instructions. The dose-response curves were determined and IC50 values were calculated using the GraphPad Prism software following a nonlinear regression (least squares fit) method. Data presented was mean±standard deviation (SD)unless otherwise indicated.

CDK4 = CDK4 (Homo sapiens, UniProt P11802+Q16531); experiment: CDK4 percentage degradation in Calu-1 cells (Table 6); assay type: cell-based; design: Cells that express cyclin D1-3 and CDK4/6 proteins were treated with heterobifunctional compounds; endogenous in cells; host or cells: Calu-1; conditions: 16 hours; for inhibition at 0.04 µM: 40 nM; for inhibition at 0.2 µM: 200 nM
In short: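 Calu-1 cells exposed to heterobifunctional compounds at 40 nM or 200 nM for 16 h. Cyclin D1 and CDK4 levels measured by Western blot of RIPA lysates (BCA-normalised loading), bands quantified by densitometry and expressed as percentage degradation.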

[4] = test system: T47D palbo-resistant cells; experiment: CellTiter-Lumi cell viability assay, T47D palbo-resistant cells, 6 days (FIG. 4); assay type: cell-based; conditions: Homo sapiens, 144 h
Procedure: (§2) Furthermore, we developed one ER^+ breast cancer T47D model with acquired resistance after long period of treatment with 1 μM palbociclib (over IC90). Cells were deemed resistant when growing in the presence of palbo at the same rate as parental cells. Palbo resistance was determined by CellTiter-Lumi cell viability assay (FIG. 4, IC50>10,000 nM).

T47D cells [5] = experiment: Anti-proliferation (viability) of ER+ breast cancer T47D cells, 6 days (Table 7, FIG. 2B); assay type: cell-based; conditions: for IC50: Homo sapiens, 144 h, T47D cells, 6 days, 10-point serial dilution, read-out: GI IC50 in T47D
In short: (§3)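 Viability after a 10-point dilution series of heterobifunctional compounds, with exposure of 6 days for ER+ breast T47D cells and 3 days for NSCLC Calu-1 cells.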

[6] = Mouse pharmacokinetics (FIG. 5); assay type: in vivo, male Swiss Albino mice; conditions: plasma, po, mice, 1 mg/kg i.v. and 10 mg/kg p.o., over 12 hours
Procedure: A single dose of CPD-39 via 1 mg/kg intravenous (i.v.) injection or 10 mg/kg oral (p.o.) gavage was evaluated in mice. Plasma concentration of CPD-39 reported at each time points post dosing (5 min, 15 min, 30 min, 1 h, 2 h, 4 h, and 8 h via i.v.; 15 min, 30 min, 1 h, 2 h, 4 h, 6 h, 8 h, and 12 h via p.o.) represents the mean value derived from 3 experimental animals.
Standard PK studies were conducted using male Swiss Albino mice by Sai Life Sciences. A single dose of test compound via intravenous (i.v.) injection or oral (p.o.) gavage was evaluated in fed mice. Plasma concentration of test compound reported at each time points represents the mean value derived from 3 experimental animals. Error bars represent +SD.

T47D parental cells = experiment: CellTiter-Lumi cell viability assay, T47D parental cells, 6 days (FIG. 4); assay type: cell-based; conditions: Homo sapiens, 144 h
Procedure: as §2

Calu-1 cells [7] = experiment: Anti-proliferation (viability) of NSCLC Calu-1 cells, 3 days (Table 7, FIG. 2B); assay type: cell-based; conditions: for IC50: Homo sapiens, 72 h, Calu-1 cells, 3 days, 10-point serial dilution, read-out: GI IC50 in Calu-1
In short: as §3

HCC1428 cells [8] = experiment: Annexin V apoptosis flow cytometry, HCC1428 (FIG. 3B); assay type: cell-based; conditions: HCC1428, dose approximating IC90, 6 days
Procedure: (§4) T47D cells were treated with DMSO, palbociclib, heterobifunctional compound CPD-10 for 6 days at doses approximating IC50 and IC90 concentrations as indicated (FIG. 3A). HCC1428 cells were treated with DMSO, palbociclib, heterobifunctional compound CPD-10, or its negative control compound CPD-143 for 6 days at doses approximating IC90 concentrations as indicated (FIG. 3B). Cells were harvested by trypsinization, staining was carried out using the Annexin V Apoptosis Detection Kit.
Assays were performed on the CytoFLEX Cytometer (Beckman Coulter), and data were analyzed using CytExpert software. For cell death and apoptosis analysis, cells were harvested by trypsinization, staining was carried out using the Annexin V Apoptosis Detection Kit (BD Biosciences). Briefly, cells were resuspended in 1× binding buffer and incubated with fluorochrome-conjugated Annexin V and 7-AAD for 15 min in darkness at room temperature.

[9] = test system: CCND1, CCND3, CDK4 in T47D cells; experiment: Immunoblot of CCND1, CCND3, CDK4 protein degradation in T47D cells (FIG. 2A, 48 hours); assay type: cell-based; conditions: negative control vs CPD-10
Procedure: Specific exemplary heterobifunctional compounds were characterized in Calu-1, MCF7, T47D and other cells. Cells that express cyclin D1-3 and CDK4/6 proteins were treated with heterobifunctional compounds disclosed herein at indicated concentrations. MCF7 cells were deprived of serum for 2 hours followed by the treatment with heterobifunctional compounds. Cells were collected, lysed and subject to immunoblotting using an antibody specific to CCND1, CCND2, CCND3, CDK4, or FoxM1, cyclin A2, or phosphorylated Rb (S807/811) proteins. Tubulin or GAPDH was used as the loading control. DMSO treatment was used as the negative control.
To verify that heterobifunctional compound-mediated degradation is dependent on the binding to CDK4-cyclin D complex, a negative control compound, CPD-143, which is derived from active heterobifunctional compound CPD-10 was designed. CPD-143 bears the same DDB1 ligand and linker as CPD-10 but with a modified warhead to impair the binding of the control compound to CDK4.

T47D cells [10] = experiment: Downstream inhibition in T47D cells with CPD-10 and negative control CPD-143 (FIG. 2A); assay type: cell-based; conditions: 48 hours, dose range
Procedure: (§5) T47D cells were treated with a dose range of heterobifunctional compound CPD-10, and its negative control compound CPD-143 for 48 hours (FIG. 2A).
(§6) Cultured cells were washed with cold PBS once and lysed in cold RIPA buffer supplemented with protease inhibitors and phosphatase inhibitors (Beyotime Biotechnology). The solutions were then incubated at 4 ? for 30 min with gentle agitation to fully lysed cells. Cell lysates were centrifuged at 13,000 rpm for 10 min at 4 ? and pellets were discarded. Total protein concentrations in the lysates were determined following BCA assays (Beyotime Biotechnology). Cell lysates were mixed with Laemmli loading buffer and heated at 99° C. for 5 min. Proteins were resolved on SDS-PAGE and visualized using Western ECL Substrate kits on a ChemiDoc MP Imaging system (Bio-Rad). Protein bands were quantitated using the Image Lab software provided by Bio-Rad.

MCF7 cells [11] = experiment: Cell viability / anti-proliferation assay, MCF7 (Table 7, FIG. 2B); assay type: cell-based; conditions: 10-point serial dilution, 3-6 days
Procedure: (§7) NSCLC Calu-1 or ER+ breast cancer T47D cells were treated with selected heterobifunctional compounds following a 10-point serial dilution for 3 or 6 days, respectively.
(§8) Cells were treated with heterobifunctional compounds following a 10-point serial dilution for 3-6 days. In Calu-1 cells, A: anti-proliferation activity IC50≤10 nM; B: anti-proliferation activity IC50<50 nM, and ≥10 nM; C: anti-proliferation activity IC50≥50 nM. In T47D cells, A: anti-proliferation activity IC50≤50 nM; B: anti-proliferation activity IC50≤100 nM, and ≥50 nM; C: anti-proliferation activity IC50≥100 nM; -, data not available.
(§9) Calu-1, MCF7 or T47D cells were seeded in 96-well plates and treated with CPD-10, or CPD-143 following a 10-point serial dilution for 3-6 days (FIG. 2B).
(§10) Calu-1, T47D, MCF7, HCC1428 and other cells were cultured at 37° C. with 5% CO2 in RPMI 1640 or DMEM medium supplemented with 10% fetal bovine serum. […]
as §1, with “Data presented was mean±standard deviation (SD)unless otherwise indicated.” left out

Calu-1 cells [12] = experiment: Cell viability / anti-proliferation assay, Calu-1 (Table 7, FIG. 2B); assay type: cell-based; conditions: 10-point serial dilution, 3-6 days
Procedure: as §7, §8, §9, §10
as §1, with “Data presented was mean±standard deviation (SD)unless otherwise indicated.” left out

HCC1428 cells [13] = experiment: Flow cytometric analysis of Annexin V/7-AAD stained HCC1428 cells (apoptosis), 6 days (FIG. 3B); assay type: cell-based; conditions: HCC1428; 400 nM; 6 days
Procedure: as §4, with “IC50and” for “IC50 and”, “Kit. The percentages of early apoptotic (Annexin V^+7-AAD^−, lower right quadrant), late apoptotic (Annexin V^+7-AAD^+, upper right quadrant) and necrotic cells (Annexin V^−7-AAD^+, upper left quadrant) are indicated on dot plots.” for “Kit.”

T47D cells [14] = experiment: Cell viability / anti-proliferation assay, T47D (Table 7, FIG. 2B); assay type: cell-based; conditions: 10-point serial dilution, 3-6 days
Procedure: as §7, §8, §9, §10
as §1, with “Data presented was mean±standard deviation (SD)unless otherwise indicated.” left out

CCND = CCND degradation in T47D cells with CPD-10 and negative control CPD-143 (FIG. 2A); assay type: cell-based; conditions: 48 hours, dose range
Procedure: as §5, §6

Chain of CDK4 (P11802 2-303 limits assumed): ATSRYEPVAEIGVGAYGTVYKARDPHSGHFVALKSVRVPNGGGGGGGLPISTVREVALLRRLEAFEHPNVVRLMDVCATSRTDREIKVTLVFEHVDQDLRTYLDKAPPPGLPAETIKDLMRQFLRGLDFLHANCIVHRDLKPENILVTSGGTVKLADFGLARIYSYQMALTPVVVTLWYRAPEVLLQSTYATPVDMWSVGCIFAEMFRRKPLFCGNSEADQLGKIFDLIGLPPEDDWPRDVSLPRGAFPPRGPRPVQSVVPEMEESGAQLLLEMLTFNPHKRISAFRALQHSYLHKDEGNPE
Chain of CDK4 (P24385 whole entry partner): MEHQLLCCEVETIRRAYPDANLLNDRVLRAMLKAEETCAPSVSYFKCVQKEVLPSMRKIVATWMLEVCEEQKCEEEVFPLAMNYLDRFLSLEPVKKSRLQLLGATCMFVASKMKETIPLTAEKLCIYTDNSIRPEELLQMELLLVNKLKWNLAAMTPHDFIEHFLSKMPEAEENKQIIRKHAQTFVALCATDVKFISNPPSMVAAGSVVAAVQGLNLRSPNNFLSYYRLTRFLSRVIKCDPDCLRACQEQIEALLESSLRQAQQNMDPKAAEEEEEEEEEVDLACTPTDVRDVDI
Chain of CDK4 (Q16531 2-1140 limits assumed): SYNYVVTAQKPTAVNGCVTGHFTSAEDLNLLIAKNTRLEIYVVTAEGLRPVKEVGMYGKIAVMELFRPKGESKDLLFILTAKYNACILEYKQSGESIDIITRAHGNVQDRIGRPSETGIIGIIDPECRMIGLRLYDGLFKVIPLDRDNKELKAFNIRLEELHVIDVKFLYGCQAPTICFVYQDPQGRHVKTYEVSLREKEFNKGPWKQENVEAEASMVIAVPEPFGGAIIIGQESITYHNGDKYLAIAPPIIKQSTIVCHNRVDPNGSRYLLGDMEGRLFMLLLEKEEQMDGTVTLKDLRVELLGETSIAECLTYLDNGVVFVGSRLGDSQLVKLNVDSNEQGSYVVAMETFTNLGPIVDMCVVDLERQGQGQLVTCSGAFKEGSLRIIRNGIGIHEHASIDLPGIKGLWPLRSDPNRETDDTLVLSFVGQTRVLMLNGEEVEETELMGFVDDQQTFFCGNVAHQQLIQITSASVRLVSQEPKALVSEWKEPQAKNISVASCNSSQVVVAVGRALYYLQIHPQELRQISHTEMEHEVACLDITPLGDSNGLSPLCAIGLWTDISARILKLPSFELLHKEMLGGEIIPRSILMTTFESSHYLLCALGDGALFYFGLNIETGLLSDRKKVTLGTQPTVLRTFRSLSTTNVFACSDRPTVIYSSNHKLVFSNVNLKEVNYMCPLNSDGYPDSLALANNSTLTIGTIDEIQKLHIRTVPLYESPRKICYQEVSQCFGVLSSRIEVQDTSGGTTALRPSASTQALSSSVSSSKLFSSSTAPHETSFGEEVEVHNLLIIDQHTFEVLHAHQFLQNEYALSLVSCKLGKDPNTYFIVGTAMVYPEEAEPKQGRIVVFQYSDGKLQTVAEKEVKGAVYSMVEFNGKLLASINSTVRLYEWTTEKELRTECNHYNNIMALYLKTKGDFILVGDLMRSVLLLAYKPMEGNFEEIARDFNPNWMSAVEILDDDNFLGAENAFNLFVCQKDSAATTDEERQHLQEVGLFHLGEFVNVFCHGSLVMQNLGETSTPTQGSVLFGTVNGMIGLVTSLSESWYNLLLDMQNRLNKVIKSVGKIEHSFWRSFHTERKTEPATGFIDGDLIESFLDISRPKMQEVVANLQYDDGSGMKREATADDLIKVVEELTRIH

SMILES: CNc1ccc(C(=O)Nc2ccc(N(C)C)nn2)c(NC2CC3(CC(NC(=O)CN4CCN(c5ccc(Nc6ncc7c(C)c(C(C)=O)c(=O)n(C8CCCC8)c7n6)nc5)CC4)C3)C2)n1 (stereo not drawn) [CPD-39, 2-((6-(2-(4-(6-((6-Acetyl-8-cyclopentyl-5-methyl-7-oxo-7,8-dihydropyrido[2,3-d]pyrimidin-2-yl)amino)pyridin-3-yl)piperazin-1-yl)acetamido)spiro[3.3]heptan-2-yl)amino)-N-(6-(dimethylamino)pyridazin-3-yl)-6-(methylamino)nicotinamide]
- IC50 (MCF7 cells [1]): > 100 nM
- AUC(0-inf) ([2]; iv, mice, 1 mg/kg i.v., read-out: AUCinf, i.v.): 1030 ng·h/mL
- clearance ([2]; iv, mice, 1 mg/kg i.v., read-out: CL, i.v.): 16.3 mL/min/kg
- Vd ([2]; iv, mice, 1 mg/kg i.v., read-out: VSS, i.v.): 1.6 L/kg
- AUC(0-inf) ([2]; po, fed mice, 10 mg/kg p.o., read-out: AUCinf, p.o.): 1580 ng·h/mL
- bioavailability ([2]; fed mice, 10 mg/kg oral vs 1 mg/kg i.v.): > 15%
- cell viability in palbociclib-resistant model [3]: remained effective in T47D palbo-resistant model
- inhibition at 0.04 µM (CDK4): 50 to 80%
- inhibition at 0.2 µM (CDK4): 50 to 80%
- IC50 [4]: 82.5 nM
- IC50 (T47D cells [5]): ≤ 50 nM
- bioavailability at 12 h [6]: ~15%
- IC50 (T47D parental cells): 32.6 nM
- IC50 (Calu-1 cells [7]): ≤ 10 nM

SMILES: CNc1ccc(C(=O)Nc2ccc(N(C)C)nn2)c(NCCCCCCCNC(=O)CN2CCN(c3ccc(N(C)c4ncc5c(C)c(C(C)=O)c(=O)n(C6CCCC6)c5n4)nc3)CC2)n1 [CPD-143, 2-((7-(2-(4-(6-((6-acetyl-8-cyclopentyl-5-methyl-7-oxo-7,8-dihydropyrido[2,3-d]pyrimidin-2-yl)(methyl)amino)pyridin-3-yl)piperazin-1-yl)acetamido)heptyl)amino)-N-(6-(dimethylamino)pyridazin-3-yl)-6-(methylamino)nicotinamide]
- cell apoptosis (HCC1428 cells [8]): much less effect on cell apoptosis
- fold decrease in DC50 (degradation potency) compared with CPD-10 [9]: > 100 -fold
- IC50 (MCF7 cells [1]): > 100 nM
- fold decrease in cellular anti-proliferation activity compared with CPD-10 (MCF7 cells [1]; MCF7, negative control vs CPD-10, FIG. 2B): > 15 -fold
- downstream inhibition potency (T47D cells [10]): much weaker degradation potencies and downstream inhibition potencies
- cell viability / anti-proliferation activity (MCF7 cells [11]): much weaker cellular anti-proliferation activities
- inhibition at 0.04 µM (CDK4): < 30%
- inhibition at 0.2 µM (CDK4): 50 to 80%
- cell viability / anti-proliferation activity (Calu-1 cells [12]): much weaker cellular anti-proliferation activities
- IC50 (T47D cells [5]): ≥ 100 nM
- fold decrease in cellular anti-proliferation activity compared with CPD-10 (T47D cells [5]; T47D, negative control vs CPD-10, FIG. 2B): > 50 -fold
- Annexin V+ population (HCC1428 cells [13]): 11.8%
- cell viability / anti-proliferation activity (T47D cells [14]): much weaker cellular anti-proliferation activities
- degradation potency (CCND): much weaker degradation potencies
- fold decrease in cellular anti-proliferation activity compared with CPD-10 (Calu-1 cells [7]; Calu-1, negative control vs CPD-10, FIG. 2B): > 50 -fold
- IC50 (Calu-1 cells [7]): ≥ 50 nM
